Data from ChEMBL document CHEMBL4507291 (2021).

Columns and labels:
[1] = target: Beta-1 adrenergic receptor (Homo sapiens) (UniProt P08588); details: Compound concentration 10.0 uM
[2] = target: Acetylcholine receptor subunit alpha (Homo sapiens) (UniProt P02708); test: Inhibition of Nicotinic Acetylcholine D1, Bungarotoxin at 10 µM in the Eurofins-Panlabs radioligand binding assay (Eurofins_assay_258700); details: Compound concentration 10.0 uM
[3] = target: Substance-P receptor (Homo sapiens) (UniProt P25103); test: Inhibition of Tachykinin NK1 at 10 µM in the Eurofins-Panlabs radioligand binding assay (Eurofins_assay_255520); set-up: ligand concentration 0.8 nM; details: Compound concentration 10.0 uM
[4] = target: Prostaglandin G/H synthase 1 (Homo sapiens) (UniProt P23219); test: Inhibition of Cyclooxygenase COX-1 at compound concentration of 10.0 uM in the Eurofins-Panlabs enzyme assay (Eurofins_assay_116020); details: Compound concentration 10.0 uM
[5] = target: Mitogen-activated protein kinase 14 (Homo sapiens) (UniProt Q16539); test: Inhibition of Protein Serine/Threonine Kinase, MAPK14 (p38α) at 10 µM in the Eurofins-Panlabs enzyme assay (Eurofins_assay_176610); set-up: substrate with concentration; details: Compound concentration 10.0 uM
[6] = target: T1, Serine/threonine-protein kinase BRSK1 (Homo sapiens) (UniProt Q8TDC3); test: BRSK1 (SAD1) Kinase screen; details: Compound concentration 1.0 uM
T1 sequence (whole entry): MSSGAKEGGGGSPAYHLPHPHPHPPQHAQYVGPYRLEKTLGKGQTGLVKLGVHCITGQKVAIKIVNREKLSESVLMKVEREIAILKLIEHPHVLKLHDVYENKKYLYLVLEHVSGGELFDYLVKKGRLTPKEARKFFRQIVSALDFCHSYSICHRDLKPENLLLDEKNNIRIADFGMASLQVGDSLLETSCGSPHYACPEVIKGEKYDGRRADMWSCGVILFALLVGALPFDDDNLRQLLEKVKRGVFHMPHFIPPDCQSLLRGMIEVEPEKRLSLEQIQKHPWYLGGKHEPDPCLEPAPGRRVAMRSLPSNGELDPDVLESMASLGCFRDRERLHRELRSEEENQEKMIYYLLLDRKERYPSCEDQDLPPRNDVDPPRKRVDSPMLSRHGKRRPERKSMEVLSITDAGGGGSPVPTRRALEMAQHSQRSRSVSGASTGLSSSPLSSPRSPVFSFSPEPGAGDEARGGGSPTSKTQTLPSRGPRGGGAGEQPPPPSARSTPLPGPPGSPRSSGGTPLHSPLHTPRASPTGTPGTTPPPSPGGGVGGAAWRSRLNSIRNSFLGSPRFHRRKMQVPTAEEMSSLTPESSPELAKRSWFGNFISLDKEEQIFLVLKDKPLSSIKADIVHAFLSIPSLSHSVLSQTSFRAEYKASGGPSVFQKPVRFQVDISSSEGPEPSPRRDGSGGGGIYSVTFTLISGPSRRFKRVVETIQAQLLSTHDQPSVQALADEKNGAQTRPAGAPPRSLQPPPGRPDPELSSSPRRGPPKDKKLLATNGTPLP

[7] = target: Serine/threonine-protein kinase MRCK beta (Homo sapiens) (UniProt Q9Y5S2); test: CDC42 BPB (MRCKB) Kinase screen; details: Compound concentration 1.0 uM
[8] = target: Cyclin-dependent kinase 2/cyclin A (Homo sapiens) (UniProt P24941+P20248+P78396); test: CDK2/cyclin A Kinase screen; assay type: protein-complex assay; details: Compound concentration 1.0 uM
[9] = target: T2, Myotonin-protein kinase (Homo sapiens) (UniProt Q09013); test: DMPK Kinase screen; details: Compound concentration 1.0 uM
T2 sequence (whole entry): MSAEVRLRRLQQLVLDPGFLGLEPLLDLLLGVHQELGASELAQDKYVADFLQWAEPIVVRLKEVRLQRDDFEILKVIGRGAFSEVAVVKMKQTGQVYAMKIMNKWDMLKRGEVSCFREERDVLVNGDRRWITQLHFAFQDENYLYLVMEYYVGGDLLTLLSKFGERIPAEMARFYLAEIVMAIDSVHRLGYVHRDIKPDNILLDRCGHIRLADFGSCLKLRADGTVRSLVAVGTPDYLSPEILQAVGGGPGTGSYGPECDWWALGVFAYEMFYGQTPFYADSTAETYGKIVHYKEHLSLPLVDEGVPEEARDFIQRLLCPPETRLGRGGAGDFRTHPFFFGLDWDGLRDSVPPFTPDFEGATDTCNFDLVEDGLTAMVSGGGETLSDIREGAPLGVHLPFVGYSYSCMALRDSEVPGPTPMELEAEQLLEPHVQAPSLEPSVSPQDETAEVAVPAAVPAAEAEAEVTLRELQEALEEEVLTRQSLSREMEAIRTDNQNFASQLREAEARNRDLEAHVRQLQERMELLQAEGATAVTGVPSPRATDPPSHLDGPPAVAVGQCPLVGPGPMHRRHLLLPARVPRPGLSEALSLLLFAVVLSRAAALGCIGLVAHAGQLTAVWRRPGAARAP

[10] = target: Dual specificity tyrosine-phosphorylation-regulated kinase 3 (Homo sapiens) (UniProt O43781); test: DYRK3 Kinase screen; details: Compound concentration 1.0 uM
[11] = target: Tyrosine-protein kinase Lyn (Homo sapiens) (UniProt P07948); test: LYN A Kinase screen; details: Compound concentration 1.0 uM
[12] = target: T3, Mitogen-activated protein kinase kinase kinase 2 (Homo sapiens) (UniProt Q9Y2U5); test: MAP3K2 (MEKK2) Kinase screen; details: Compound concentration 1.0 uM
T3 sequence (whole entry): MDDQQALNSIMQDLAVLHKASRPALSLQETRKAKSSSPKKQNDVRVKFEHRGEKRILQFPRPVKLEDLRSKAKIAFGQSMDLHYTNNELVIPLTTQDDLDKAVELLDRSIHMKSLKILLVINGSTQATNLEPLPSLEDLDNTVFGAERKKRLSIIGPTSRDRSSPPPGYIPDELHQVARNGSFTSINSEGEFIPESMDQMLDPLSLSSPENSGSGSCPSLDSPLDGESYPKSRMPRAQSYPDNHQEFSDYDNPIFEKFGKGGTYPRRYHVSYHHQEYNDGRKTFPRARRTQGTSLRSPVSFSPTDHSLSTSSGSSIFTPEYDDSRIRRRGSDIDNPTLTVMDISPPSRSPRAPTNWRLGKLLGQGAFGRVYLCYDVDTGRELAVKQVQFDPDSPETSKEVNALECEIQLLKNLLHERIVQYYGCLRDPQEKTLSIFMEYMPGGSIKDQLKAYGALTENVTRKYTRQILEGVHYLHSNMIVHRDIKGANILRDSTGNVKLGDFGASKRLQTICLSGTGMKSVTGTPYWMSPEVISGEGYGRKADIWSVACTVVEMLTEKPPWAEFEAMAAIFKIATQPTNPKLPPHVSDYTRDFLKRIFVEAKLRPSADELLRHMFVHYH

[13] = target: Phosphorylase b kinase gamma catalytic chain, skeletal muscle/heart isoform (Homo sapiens) (UniProt Q16816); test: PHKG1 Kinase screen; details: Compound concentration 1.0 uM
[14] = target: Proto-oncogene tyrosine-protein kinase Src (Homo sapiens) (UniProt P12931); test: SRC Kinase screen; details: Compound concentration 1.0 uM
[15] = target: Serine/threonine-protein kinase 25 (Homo sapiens) (UniProt O00506); test: STK25 (YSK1) Kinase screen; details: Compound concentration 1.0 uM
[16] = target: MAP/microtubule affinity-regulating kinase 3 (Homo sapiens) (UniProt P27448); test: Protein Serine/Threonine Kinase, MARK3 Eurofins-Panlabs enzyme assay; details: Compound concentration 10.0 uM
Homo sapiens = species: Homo sapiens; test: Somatostatin sst2 Eurofins-Panlabs radioligand binding assay; set-up: ligand concentration 0.03 nM; details: Compound concentration 10.0 uM

Measured: inhibition

Phosphorylase b kinase gamma catalytic chain, skeletal muscle/heart isoform (Homo sapiens), sequence (Q16816 whole entry, looked up, canonical isoform): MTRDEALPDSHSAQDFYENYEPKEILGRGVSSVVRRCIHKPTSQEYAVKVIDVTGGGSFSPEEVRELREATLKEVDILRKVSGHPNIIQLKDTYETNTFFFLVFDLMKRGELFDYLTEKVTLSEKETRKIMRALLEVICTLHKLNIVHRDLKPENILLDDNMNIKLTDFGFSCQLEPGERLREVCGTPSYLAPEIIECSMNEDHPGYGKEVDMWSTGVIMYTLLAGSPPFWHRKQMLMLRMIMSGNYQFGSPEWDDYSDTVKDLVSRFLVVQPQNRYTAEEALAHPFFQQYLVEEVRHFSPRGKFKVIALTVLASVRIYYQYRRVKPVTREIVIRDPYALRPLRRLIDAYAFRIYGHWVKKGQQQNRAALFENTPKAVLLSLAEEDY
Substance-P receptor (Homo sapiens), sequence (P25103 whole entry): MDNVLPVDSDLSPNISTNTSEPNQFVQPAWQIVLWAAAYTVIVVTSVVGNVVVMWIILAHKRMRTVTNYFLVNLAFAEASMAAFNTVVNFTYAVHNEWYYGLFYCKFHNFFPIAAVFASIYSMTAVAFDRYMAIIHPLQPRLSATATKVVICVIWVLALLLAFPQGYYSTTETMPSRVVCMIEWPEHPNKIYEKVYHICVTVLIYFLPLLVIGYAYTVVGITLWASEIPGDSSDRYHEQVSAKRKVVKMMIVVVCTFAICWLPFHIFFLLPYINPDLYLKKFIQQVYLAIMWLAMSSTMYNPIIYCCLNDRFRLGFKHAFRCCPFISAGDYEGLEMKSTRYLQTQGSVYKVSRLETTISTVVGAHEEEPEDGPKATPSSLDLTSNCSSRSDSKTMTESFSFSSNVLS
Acetylcholine receptor subunit alpha (Homo sapiens), sequence (P02708 whole entry): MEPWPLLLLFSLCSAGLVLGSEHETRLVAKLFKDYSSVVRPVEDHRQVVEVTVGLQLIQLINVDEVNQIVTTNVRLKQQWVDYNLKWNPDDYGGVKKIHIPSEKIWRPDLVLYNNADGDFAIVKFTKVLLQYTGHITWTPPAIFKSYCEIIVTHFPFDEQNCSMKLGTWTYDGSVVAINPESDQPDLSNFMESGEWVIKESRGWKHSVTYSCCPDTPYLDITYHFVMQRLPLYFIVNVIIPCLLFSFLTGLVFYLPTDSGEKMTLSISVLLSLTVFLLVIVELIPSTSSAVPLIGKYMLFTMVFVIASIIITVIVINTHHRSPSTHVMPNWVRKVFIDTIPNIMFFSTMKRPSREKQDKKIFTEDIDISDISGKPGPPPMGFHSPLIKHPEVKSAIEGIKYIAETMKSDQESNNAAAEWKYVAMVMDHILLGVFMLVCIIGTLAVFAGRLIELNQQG
Prostaglandin G/H synthase 1 (Homo sapiens), sequence (P23219 whole entry): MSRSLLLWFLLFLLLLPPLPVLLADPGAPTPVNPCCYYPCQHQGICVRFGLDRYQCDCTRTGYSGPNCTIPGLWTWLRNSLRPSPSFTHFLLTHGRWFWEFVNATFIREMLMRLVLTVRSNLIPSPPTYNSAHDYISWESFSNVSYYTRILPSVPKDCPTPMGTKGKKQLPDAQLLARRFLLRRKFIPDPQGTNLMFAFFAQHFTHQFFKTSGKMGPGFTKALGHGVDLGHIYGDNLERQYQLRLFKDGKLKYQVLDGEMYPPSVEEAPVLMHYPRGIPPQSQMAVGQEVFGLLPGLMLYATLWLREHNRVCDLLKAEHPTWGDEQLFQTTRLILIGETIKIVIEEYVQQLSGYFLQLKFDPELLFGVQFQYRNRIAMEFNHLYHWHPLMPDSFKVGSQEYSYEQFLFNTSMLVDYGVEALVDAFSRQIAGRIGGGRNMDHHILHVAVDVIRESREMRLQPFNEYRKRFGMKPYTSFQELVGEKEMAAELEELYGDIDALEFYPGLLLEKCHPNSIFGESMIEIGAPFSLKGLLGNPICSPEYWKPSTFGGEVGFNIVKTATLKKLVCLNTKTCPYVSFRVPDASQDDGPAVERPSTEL
Proto-oncogene tyrosine-protein kinase Src (Homo sapiens), sequence (P12931 2-536 limits assumed): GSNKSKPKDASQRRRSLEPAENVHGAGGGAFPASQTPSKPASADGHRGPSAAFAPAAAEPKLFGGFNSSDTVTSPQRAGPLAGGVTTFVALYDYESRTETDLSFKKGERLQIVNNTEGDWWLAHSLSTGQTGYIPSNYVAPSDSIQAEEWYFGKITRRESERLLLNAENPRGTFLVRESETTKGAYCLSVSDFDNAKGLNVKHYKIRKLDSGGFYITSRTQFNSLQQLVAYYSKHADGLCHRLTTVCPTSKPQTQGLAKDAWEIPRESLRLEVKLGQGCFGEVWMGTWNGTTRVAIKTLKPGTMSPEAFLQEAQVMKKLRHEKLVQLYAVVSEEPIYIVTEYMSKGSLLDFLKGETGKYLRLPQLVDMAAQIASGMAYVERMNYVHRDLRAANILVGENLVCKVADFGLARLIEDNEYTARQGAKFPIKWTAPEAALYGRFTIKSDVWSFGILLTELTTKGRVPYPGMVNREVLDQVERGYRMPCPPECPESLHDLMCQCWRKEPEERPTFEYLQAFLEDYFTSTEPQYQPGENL
Tyrosine-protein kinase Lyn (Homo sapiens), sequence (P07948 2-512 limits assumed): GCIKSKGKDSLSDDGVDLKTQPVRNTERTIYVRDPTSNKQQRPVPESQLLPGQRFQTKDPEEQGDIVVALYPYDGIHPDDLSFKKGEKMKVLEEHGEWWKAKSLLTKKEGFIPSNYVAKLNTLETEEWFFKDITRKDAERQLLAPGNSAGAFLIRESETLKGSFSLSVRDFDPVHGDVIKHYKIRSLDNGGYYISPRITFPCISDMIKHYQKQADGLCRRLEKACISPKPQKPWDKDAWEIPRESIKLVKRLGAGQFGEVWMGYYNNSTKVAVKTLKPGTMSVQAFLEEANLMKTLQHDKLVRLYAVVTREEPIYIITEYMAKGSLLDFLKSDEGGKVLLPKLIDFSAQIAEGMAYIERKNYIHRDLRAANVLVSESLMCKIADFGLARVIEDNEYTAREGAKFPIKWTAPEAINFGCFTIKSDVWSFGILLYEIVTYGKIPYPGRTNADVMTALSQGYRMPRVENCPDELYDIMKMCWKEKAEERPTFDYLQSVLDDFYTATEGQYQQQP
Serine/threonine-protein kinase 25 (Homo sapiens), sequence (O00506 whole entry, looked up): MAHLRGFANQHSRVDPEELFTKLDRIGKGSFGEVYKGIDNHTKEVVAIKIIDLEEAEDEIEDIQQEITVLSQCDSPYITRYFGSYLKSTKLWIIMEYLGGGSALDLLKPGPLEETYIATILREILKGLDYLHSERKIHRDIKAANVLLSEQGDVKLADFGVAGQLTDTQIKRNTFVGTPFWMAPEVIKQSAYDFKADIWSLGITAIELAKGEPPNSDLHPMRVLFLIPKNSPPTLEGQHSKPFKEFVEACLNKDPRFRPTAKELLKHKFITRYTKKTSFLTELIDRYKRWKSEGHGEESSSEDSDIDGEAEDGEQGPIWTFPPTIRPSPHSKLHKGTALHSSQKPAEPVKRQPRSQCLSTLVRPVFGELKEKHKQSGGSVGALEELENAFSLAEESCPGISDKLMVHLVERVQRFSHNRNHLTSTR
Beta-1 adrenergic receptor (Homo sapiens), sequence (P08588 whole entry, looked up): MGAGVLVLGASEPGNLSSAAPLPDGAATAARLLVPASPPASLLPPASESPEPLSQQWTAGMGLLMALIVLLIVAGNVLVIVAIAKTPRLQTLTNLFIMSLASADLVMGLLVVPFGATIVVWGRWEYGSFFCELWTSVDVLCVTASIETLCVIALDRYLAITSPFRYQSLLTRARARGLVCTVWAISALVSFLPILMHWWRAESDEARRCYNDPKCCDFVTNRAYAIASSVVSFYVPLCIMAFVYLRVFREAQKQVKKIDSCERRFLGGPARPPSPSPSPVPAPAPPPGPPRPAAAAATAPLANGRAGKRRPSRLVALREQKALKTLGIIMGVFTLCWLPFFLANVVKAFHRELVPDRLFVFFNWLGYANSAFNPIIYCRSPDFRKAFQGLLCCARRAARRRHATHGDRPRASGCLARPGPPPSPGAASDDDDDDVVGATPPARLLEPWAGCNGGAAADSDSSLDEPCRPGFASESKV
Mitogen-activated protein kinase 14 (Homo sapiens), sequence (Q16539 whole entry): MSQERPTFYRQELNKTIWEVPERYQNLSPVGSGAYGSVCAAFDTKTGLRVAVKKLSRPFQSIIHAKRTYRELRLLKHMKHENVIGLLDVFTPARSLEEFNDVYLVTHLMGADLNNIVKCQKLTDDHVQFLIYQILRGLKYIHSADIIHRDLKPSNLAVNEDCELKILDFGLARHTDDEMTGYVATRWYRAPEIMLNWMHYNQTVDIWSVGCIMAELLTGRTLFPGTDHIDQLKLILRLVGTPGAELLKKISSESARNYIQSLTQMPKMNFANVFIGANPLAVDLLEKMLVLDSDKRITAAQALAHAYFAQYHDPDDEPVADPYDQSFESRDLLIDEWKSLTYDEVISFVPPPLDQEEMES
MAP/microtubule affinity-regulating kinase 3 (Homo sapiens), sequence (P27448 whole entry, looked up): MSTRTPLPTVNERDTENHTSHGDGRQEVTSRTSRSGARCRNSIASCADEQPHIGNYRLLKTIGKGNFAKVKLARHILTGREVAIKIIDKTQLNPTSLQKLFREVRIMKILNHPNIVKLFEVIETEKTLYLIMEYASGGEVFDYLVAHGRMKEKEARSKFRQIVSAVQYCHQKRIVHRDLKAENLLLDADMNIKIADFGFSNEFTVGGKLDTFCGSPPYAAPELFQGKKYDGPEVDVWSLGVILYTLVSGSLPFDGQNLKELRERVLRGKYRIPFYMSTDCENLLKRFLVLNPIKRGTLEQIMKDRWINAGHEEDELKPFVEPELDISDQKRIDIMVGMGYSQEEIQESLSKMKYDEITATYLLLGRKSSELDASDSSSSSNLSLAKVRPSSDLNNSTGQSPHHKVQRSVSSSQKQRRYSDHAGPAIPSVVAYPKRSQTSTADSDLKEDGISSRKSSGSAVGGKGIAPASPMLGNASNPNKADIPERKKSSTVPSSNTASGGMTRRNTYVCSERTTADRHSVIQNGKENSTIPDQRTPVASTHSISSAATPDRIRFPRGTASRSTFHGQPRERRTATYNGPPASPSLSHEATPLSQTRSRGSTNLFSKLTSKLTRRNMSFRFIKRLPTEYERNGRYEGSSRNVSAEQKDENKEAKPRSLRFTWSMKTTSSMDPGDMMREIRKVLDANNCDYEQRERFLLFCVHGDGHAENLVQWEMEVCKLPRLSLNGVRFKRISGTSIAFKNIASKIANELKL

C[C@@H]1CN(c2cc(-c3nn(C)c4ccc(OC5(C)CC5)cc34)ncn2)C[C@H](C)O1 [MLi-2-NC]
inactive: [1] 5.75%

C[C@@H]1CN(c2cc(-c3n[nH]c4ccc(OC5(C)CC5)cc34)ncn2)C[C@H](C)O1 [MLi-2]
inactive: [2] 6% | [3] 22% | [4] 9% | [5] 19% | [6] 4.76% | [7] 4.34% | [8] 1.13% | [9] 5.71% | [10] 2.54% | [11] 1.05% | [12] 7.58% | [13] 0.801% | [14] 4.97% | [15] 2.24% | [16] 11% | Homo sapiens 13%
